Laboratory results as given in patent US20240261417A1, “SOS1 DEGRADING AGENT AND PREPARATION METHOD THEREFOR AND APPLICATION THEREOF” (SHANGHAI LEADINGTAC PHARMACEUTICAL CO. LTD., priority 2021, published 2024).

Biological target: T1, SOS1 protein (Homo sapiens, UniProt Q07889)
T1 sequence (Q07889 1-1333): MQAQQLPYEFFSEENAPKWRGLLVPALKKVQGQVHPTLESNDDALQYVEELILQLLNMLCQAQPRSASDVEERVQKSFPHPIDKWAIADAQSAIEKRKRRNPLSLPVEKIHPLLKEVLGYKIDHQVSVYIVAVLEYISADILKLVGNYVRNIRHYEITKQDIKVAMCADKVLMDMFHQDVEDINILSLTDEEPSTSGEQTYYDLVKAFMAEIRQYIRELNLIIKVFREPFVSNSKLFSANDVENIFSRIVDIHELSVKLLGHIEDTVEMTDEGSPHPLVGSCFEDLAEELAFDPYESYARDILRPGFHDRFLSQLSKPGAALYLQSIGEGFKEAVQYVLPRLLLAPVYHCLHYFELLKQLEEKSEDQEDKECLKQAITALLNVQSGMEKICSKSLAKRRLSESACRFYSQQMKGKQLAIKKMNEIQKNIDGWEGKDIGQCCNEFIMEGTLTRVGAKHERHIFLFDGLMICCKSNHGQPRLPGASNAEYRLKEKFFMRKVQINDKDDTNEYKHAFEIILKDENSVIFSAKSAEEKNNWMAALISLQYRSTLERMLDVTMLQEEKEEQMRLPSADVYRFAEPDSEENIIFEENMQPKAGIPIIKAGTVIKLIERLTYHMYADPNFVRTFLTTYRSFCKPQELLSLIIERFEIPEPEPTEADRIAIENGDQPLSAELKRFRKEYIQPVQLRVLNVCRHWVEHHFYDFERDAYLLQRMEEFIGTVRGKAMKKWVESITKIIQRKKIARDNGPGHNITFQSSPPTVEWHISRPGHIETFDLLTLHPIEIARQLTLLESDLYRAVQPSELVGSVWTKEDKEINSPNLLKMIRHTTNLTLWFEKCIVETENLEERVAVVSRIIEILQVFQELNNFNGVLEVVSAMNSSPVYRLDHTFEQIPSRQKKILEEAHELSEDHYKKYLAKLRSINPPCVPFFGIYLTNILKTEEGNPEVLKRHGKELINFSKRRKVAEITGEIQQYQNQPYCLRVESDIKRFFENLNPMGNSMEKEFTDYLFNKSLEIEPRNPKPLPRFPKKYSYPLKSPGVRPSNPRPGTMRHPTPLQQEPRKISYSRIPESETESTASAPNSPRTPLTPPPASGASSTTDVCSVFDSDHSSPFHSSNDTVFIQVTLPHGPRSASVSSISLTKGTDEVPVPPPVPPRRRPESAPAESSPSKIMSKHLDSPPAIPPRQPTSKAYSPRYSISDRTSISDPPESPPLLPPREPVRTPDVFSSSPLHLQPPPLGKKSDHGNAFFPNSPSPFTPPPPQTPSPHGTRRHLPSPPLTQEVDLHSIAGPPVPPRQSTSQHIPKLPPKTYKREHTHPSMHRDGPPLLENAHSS
Assay: SOS1 degradation assay (Western blot), NCI-H358 cells
Type: cell-based
Set-up: The degradation of SOS1 by the compounds was investigated on KRAS G12C mutant human non-small cell lung cancer cells NCI-H358; host or cells: NCI-H358 (human cancer cell lines)
Conditions: SOS1 degradation, NCI-H358 cells, 24 h, Western blot; for DC50: read-out: NCI-H358 (G12C) DC50; for Dmax: read-out: NCI-H358 (G12C) Dmax
Description: The specific procedures were as follows:
0.95 mL of cells were seeded into each well of a 24-well cell culture plate to achieve a cell density of 5×10^5 cells/well; the cell plate was incubated in an incubator at 37° C. with 5% CO2 overnight. Then 50 μL of the compound solution after dilution was added to each of the wells with the corresponding cells, so that the final concentration of the compound was in a range of 0.03-3000 nM. […] After dosing, the cell plate was incubated in an incubator at 37° C. with 5% CO2 for 24 h. […] After the plate was left to stand on ice for 30 min, the protein lysate in each well was transferred to a 1.5 mL centrifuge tube and centrifuged at 15000 g for 20 min at 4° C. The cell lysate supernatant after centrifugation was cryopreserved at −80° C. for testing and was used for determining the degradation level of the SOS1 protein by a WB method. The concentration of total protein in the cell lysate supernatant was determined using the BCA Protein Quantification Kit (Tiangen, PA115-02).
The concentration of total protein in the cell lysate was determined by BCA. The total protein was adjusted to 0.5 μg/μL with PBS and 5× SDS-PAGE protein loading buffer (Beyotime, P0015L), incubated in a water bath at 100° C. for 15 min, incubated in an ice bath on ice for 5 min, centrifuged at 14000 g for 1 min at 4° C., and mixed well as a loading sample for WB. Protein electrophoresis was performed on a precast gel (KeyGEN, KGMGO10W15) with a loading volume of 10 μL (total protein: 5 μg) using a Tris-MOPS-SDS running solution (Adamas, P1598253) at a constant voltage of 120 V for 55 min. After the electrophoresis, the protein on the gel strip was transferred to a PVDF membrane at a constant current of 250 mA for 65 min. After the membrane transfer, the membrane was incubated in 1× QuickBlock blocking buffer (Beyotime, P0235) for 30 min at room temperature. […] The protein map was subjected to gray value analysis by the chemiluminescence imaging system from Clinx. […] Then the degradation rate was calculated by comparing the gray correction value with the gray correction value of the control group. Then nonlinear curve fitting was performed by GraphPad Prism 8 in the logarithmic concentration-inhibition rate to obtain the DC50 and Dmax values of the compounds.

| DC50 | Dmax | SMILES | NCI-H358 (G12C) Dmax |
| --- | --- | --- | --- |
| 1000 to 10000 nM | < 30% | COc1cc2nc(C)nc(N[C@H](C)c3cc(N)cc(C(F)(F)F)c3)c2cc1[C@H]1CC[C@H](C(=O)N2CCN(CCOC3CCN(C(=O)c4ccc(Cl)c(N5CCC(=O)NC5=O)c4)CC3)CC2)CC1 [Example 30, 1-(5-(4-(2-(4-((1R,4R)-4-(4-(((R)-1-(3-amino-5-(trifluoromethyl)phenyl)ethyl)amino)-7-methoxy-2-methylquinazolin-6-yl)cyclohexane-1-carbonyl)piperazin-1-yl)ethoxy)piperidine-1-carbonyl)-2-chlorophenyl)dihydropyrimidine-2,4(1H,3H)-dione] | – |
| 1000 to 10000 nM | 30 to 50% | Cc1nc(N[C@H](C)c2cc(N)cc(C(F)(F)F)c2)c2cc(-c3ccn(CCCN(C)CC4CCC5(CC4)CCN(C(=O)c4ccc(Cl)c(N6CCC(=O)NC6=O)c4)CC5)c(=O)c3)c(C)cc2n1 [Example 42, (R)-1-(5-(9-(((3-(4-(4-((1-(3-amino-5-(trifluoromethyl)phenyl)ethyl)amino)-2,7-dimethylquinazolin-6-yl)-2-oxopyridin-1(2H)-yl)propyl)(methyl)amino)methyl)-3-azaspiro[5.5]undecane-3-carbonyl)-2-chlorophenyl)dihydropyrimidine-2,4(1H,3H)-dione] | – |
| 1000 to 10000 nM | 30 to 50% | COc1cc2nc(C)nc(N[C@H](C)c3cc(N)cc(C(F)(F)F)c3)c2cc1[C@H]1CC[C@H](C(=O)N2CCN(CC3CCC4(CC3)CCN(C(=O)c3ccc(N5CCC(=O)NC5=O)cc3)CC4)CC2)CC1 [Example 22, 1-(4-(9-((4-((1R,4R)-4-(4-(((R)-1-(3-amino-5-(trifluoromethyl)phenyl)ethyl)amino)-7-methoxy-2-methylquinazolin-6-yl)cyclohexane-1-carbonyl)piperazin-1-yl)methyl)-3-azaspiro[5.5]undecane-3-carbonyl)phenyl)dihydropyrimidine-2,4(1H,3H)-dione] | – |

The remaining lines, values behind:

| SMILES | DC50 | Dmax | NCI-H358 (G12C) Dmax |
| --- | --- | --- | --- |
| COc1cc2nc(C)nc(N[C@H](C)c3cc(N)cc(C(F)(F)F)c3)c2cc1OC1CCN(C(=O)C2CCN(CC3CCC4(CC3)CCN(C(=O)c3ccc(Cl)c(N5CCC(=O)NC5=O)c3)CC4)CC2)CC1 [Example 5, (R)-1-(5-(9-((4-(4-((4-((1-(3-amino-5-(trifluoromethyl)phenyl)ethyl)amino)-7-methoxy-2-methylquinazolin-6-yl)oxy)piperidine-1-carbonyl)piperidin-1-yl)methyl)-3-azaspiro[5.5]undecane-3-carbonyl)-2-chlorophenyl)dihydropyrimidine-2,4(1H,3H)-dione] | 50 to 100 nM | 80 to 100% | – |
| COc1cc2nc(C)nc(N[C@H](C)c3cc(N)cc(C(F)(F)F)c3)c2cc1[C@H]1CC[C@H](C(=O)N2CCN(CC3CCN(C(=O)c4ccc(Cl)c(N5CCC(=O)NC5=O)c4)CC3)CC2)CC1 [Example 13, 1-(5-(4-((4-((1R,4R)-4-(4-(((R)-1-(3-amino-5-(trifluoromethyl)phenyl)ethyl)amino)-7-methoxy-2-methylquinazolin-6-yl)cyclohexane-1-carbonyl)piperazin-1-yl)methyl)piperidine-1-carbonyl)-2-chlorophenyl)dihydropyrimidine-2,4(1H,3H)-dione] | 1000 to 10000 nM | 30 to 50% | – |
| COc1cc2nc(C)nc(N[C@H](C)c3cccc(C(F)(F)F)c3F)c2cc1[C@H]1CC[C@H](C(=O)N2CCN(CC3CCC4(CC3)CCN(C(=O)c3ccc(Cl)c(N5CCC(=O)NC5=O)c3)CC4)CC2)CC1 [Example 16, 1-(2-chloro-5-(9-((4-((1R,4R)-4-(4-(((R)-1-(2-fluoro-3-(trifluoromethyl)phenyl)ethyl)amino)-7-methoxy-2-methylquinazolin-6-yl)cyclohexane-1-carbonyl)piperazin-1-yl)methyl)-3-azaspiro[5.5]undecane-3-carbonyl)phenyl)dihydropyrimidine-2,4(1H,3H)-dione] | 500 to 1000 nM | 50 to 80% | – |
| COc1cc2nc(C)nc(N[C@H](C)c3cc(N)cc(C(F)(F)F)c3)c2cc1OC1CCN(CC2CCC3(CC2)CCN(C(=O)c2ccc(Cl)c(N4CCC(=O)NC4=O)c2)CC3)CC1 [Example 6, (R)-1-(5-(9-((4-((4-((1-(3-amino-5-(trifluoromethyl)phenyl)ethyl)amino)-7-methoxy-2-methylquinazolin-6-yl)oxy)piperidin-1-yl)methyl)-3-azaspiro[5.5]undecane-3-carbonyl)-2-chlorophenyl)dihydropyrimidine-2,4(1H,3H)-dione] | 1000 to 10000 nM | 30 to 50% | – |
| COc1cc2nc(C)nc(N[C@H](C)c3cc(N)cc(C(F)(F)F)c3)c2cc1[C@H]1CC[C@H](C(=O)N2CCN(CC3CCC4(CC3)CCN(C(=O)c3cccc(N5CCC(=O)NC5=O)c3)CC4)CC2)CC1 [Example 21, 1-(3-(9-((4-((1R,4R)-4-(4-(((R)-1-(3-amino-5-(trifluoromethyl)phenyl)ethyl)amino)-7-methoxy-2-methylquinazolin-6-yl)cyclohexane-1-carbonyl)piperazin-1-yl)methyl)-3-azaspiro[5.5]undecane-3-carbonyl)phenyl)dihydropyrimidine-2,4(1H,3H)-dione] | 1000 to 10000 nM | 30 to 50% | – |
| COc1cc2nc(C)nc(N[C@H](C)c3cc(N)cc(C(F)(F)F)c3)c2cc1[C@H]1CC[C@H](C(=O)N(C)CCOCC#CC2CCN(C(=O)c3ccc(Cl)c(N4CCC(=O)NC4=O)c3)CC2)CC1 [Example 26, (1R,4R)-4-(4-(((R)-1-(3-amino-5-(trifluoromethyl)phenyl)ethyl)amino)-7-methoxy-2-methylquinazolin-6-yl)-N-(2-((3-(1-(4-chloro-3-(2,4-dioxotetrahydropyrimidin-1(2H)-yl)benzoyl)piperidin-4-yl)prop-2-yn-1-yl)oxo)ethyl)-N-methylcyclohexane-1-carboxamide] | 1000 to 10000 nM | – | D (when Dmax (%)<30, the level was D) |
